Test results reported in patent US9353051B2, “Antiviral drugs for treatment or prevention of dengue infection” (Siga Technologies Inc., priority 2007, dated 2016).

system: Dengue-2 (Strain New Guinea C); assay: viral yield assay against Dengue-2 in Vero cells; type: cell-based; details: Dengue virus; Vero cells, MOI 0.1, harvested 48 hours post infection; read-out: Activity (anti-dengue 2 viral activity, EC50)
Description: Compounds that were active in the primary screen were also tested for activity in viral yield assays. […] Vero cells in 12-well plates were infected with dengue-2 virus at a multiplicity of infection (MOI) of 0.1, treated with compound (or DMSO as a control), incubated at 37° C., harvested 48 hours post infection and titered on Vero cells as described above. The EC50 was calculated through ExcelFit. Those compounds with activity below 1 μM are indicated with “A”, those with activity between 1 and 10 μM are indicated with “B”, those with activity between 10 and 25 μM with “C”, and those with activity above 25 μM are indicated with “D”.

| Structure (SMILES) | EC50 [µM] |
| --- | --- |
| CCN(CC)S(=O)(=O)c1ccc(NC(=O)COC(=O)Cn2nnc3ccccc3c2=O)cc1 [Compound 81, (4-Oxo-4H-benzo[d][1,2,3]triazin-3-yl)-acetic acid (4-diethylsulfamoyl-phenylcarbamoyl)-methyl ester] | > 25 |
| O=C(Cn1nnc2ccccc2c1=O)Nc1ccc(S(=O)(=O)N2CCOCC2)cc1 [Compound 82, N-[4-(Morpholine-4-sulfonyl)-phenyl]-2-(4-oxo-4H-benzo[d][1,2,3]triazin-3-yl)-acetamide] | > 25 |
| CC(NS(=O)(=O)c1ccc(NC(=O)Cn2nnc3ccccc3c2=O)cc1)C1CC2CCC1C2 (centres unmarked) [Compound 83, N-[4-(1-Bicyclo[2.2.1]hept-2-yl-ethylsulfamoyl)-phenyl]-2-(4-oxo-4H-benzo[d][1,2,3]triazin-3-yl)-acetamide] | > 25 |
| CON(C)S(=O)(=O)c1ccc(NC(=O)Cn2nnc3ccccc3c2=O)cc1 [Compound 84, N-[4-(Methoxy-methyl-sulfamoyl)-phenyl]-2-(4-oxo-4H-benzo[d][1,2,3]triazin-3-yl)-acetamide] | > 25 |
| CN(C)S(=O)(=O)c1ccc(NC(=O)Cn2nnc3ccccc3c2=O)cc1 [Compound 85, N-(4-Dimethylsulfamoyl-phenyl)-2-(4-oxo-4H-benzo[d][1,2,3]triazin-3-yl)-acetamide] | > 25 |
| CC(C)N(C)S(=O)(=O)c1ccc(NC(=O)Cn2nnc3ccccc3c2=O)cc1 [Compound 86, N-[4-(Isopropyl-methyl-sulfamoyl)-phenyl]-2-(4-oxo-4H-benzo[d][1,2,3]triazin-3-yl)-acetamide] | > 25 |
| O=C(Cn1nnc2ccccc2c1=O)Nc1ccc(S(=O)(=O)N2CCCCC2)cc1 [Compound 87, 2-(4-Oxo-4H-benzo[d][1,2,3]triazin-3-yl)-N-[4-(piperidine-1-sulfonyl)-phenyl]-acetamide] | > 25 |
| CCN(CC)S(=O)(=O)c1ccc(N(C)C)c(NC(=O)Cn2cnc3ccccc3c2=O)c1 [Compound 88, N-(5-Diethylsulfamoyl-2-dimethylamino-phenyl)-2-(4-oxo-4H-quinazolin-3-yl)-acetamide] | > 25 |
| CCN(CC)S(=O)(=O)c1ccc(C)c(NC(=O)Cn2cnc3ccccc3c2=O)c1 [Compound 89, N-(5-Diethylsulfamoyl-2-methyl-phenyl)-2-(4-oxo-4H-quinazolin-3-yl)-acetamide] | > 25 |
| CCN(CC)S(=O)(=O)c1cc(C)c(C)c(NC(=O)Cn2cnc3ccccc3c2=O)c1 [Compound 90, N-(5-Diethylsulfamoyl-2,3-dimethyl-phenyl)-2-(4-oxo-4H-quinazolin-3-yl)-acetamide] | > 25 |
| CCN(CC)S(=O)(=O)c1ccc(OC)c(NC(=O)Cn2cnc3ccccc3c2=O)c1 [Compound 91, N-(5-Diethylsulfamoyl-2-methoxy-phenyl)-2-(4-oxo-4H-quinazolin-3-yl)-acetamide] | > 25 |
| CCOc1ccc(S(=O)(=O)N(CC)CC)cc1NC(=O)Cn1cnc2ccccc2c1=O [Compound 92, N-(5-Diethylsulfamoyl-2-ethoxy-phenyl)-2-(4-oxo-4H-quinazolin-3-yl)-acetamide] | > 25 |
| CCN(CC)S(=O)(=O)c1ccc(Cl)c(NC(=O)Cn2cnc3ccccc3c2=O)c1 [Compound 93, N-(2-Chloro-5-diethylsulfamoyl-phenyl)-2-(4-oxo-4H-quinazolin-3-yl)-acetamide] | > 25 |
| CCN(CC)S(=O)(=O)c1ccc(O)c(NC(=O)Cn2nnc3ccccc3c2=O)c1 [Compound 94, N-(5-Diethylsulfamoyl-2-hydroxy-phenyl)-2-(4-oxo-4H-benzo[d][1,2,3]triazin-3-yl)-acetamide] | > 25 |
| CCN(CC)S(=O)(=O)c1ccc(C)c(NC(=O)Cn2nnc3ccccc3c2=O)c1 [Compound 95, N-(5-Diethylsulfamoyl-2-methyl-phenyl)-2-(4-oxo-4H-benzo[d][1,2,3]triazin-3-yl)-acetamide] | > 25 |
| CCN(CC)S(=O)(=O)c1ccc2c(c1)CCN2Cc1nc2ccccc2c(=O)n1C [Compound 96, 1-(3-Methyl-4-oxo-3,4-dihydro-quinazolin-2-ylmethyl)-2,3-dihydro-1H-indole-5-sulfonic acid diethylamide] | > 25 |
| CCN(CC)S(=O)(=O)c1ccc2c(c1)CCCN2C(=O)Cn1cnc2c(C)cccc2c1=O [Compound 97, 1-[2-(8-Methyl-4-oxo-4H-quinazolin-3-yl)-acetyl]-1,2,3,4-tetrahydro-quinoline-6-sulfonic acid diethylamide] | > 25 |
| CN(Cc1ccccc1)S(=O)(=O)c1ccc(NC(=O)CCn2cnc3ccccc3c2=O)cc1 [Compound 98, N-[4-(Benzyl-methyl-sulfamoyl)-phenyl]-3-(4-oxo-4H-quinazolin-3-yl)-propionamide] | > 25 |
| Cc1ccc(S(=O)(=O)Nc2ccc3ncn(Cc4ccccc4)c(=O)c3c2)cc1 [Compound 99, N-(3-Benzyl-4-oxo-3,4-dihydro-quinazolin-6-yl)-4-methyl-benzenesulfonamide] | > 25 |
| Cc1nn(CC(=O)Nc2ccc(S(N)(=O)=O)cc2)c(=O)c2ccccc12 [Compound 100, 2-(4-Methyl-1-oxo-1H-phthalazin-2-yl)-N-(4-sulfamoyl-phenyl)-acetamide] | > 25 |
| CCn1c(=O)c2ccccc2n(CC(=O)NCCc2ccc(S(N)(=O)=O)cc2)c1=O [Compound 101, 2-(3-Ethyl-2,4-dioxo-3,4-dihydro-2H-quinazolin-1-yl)-N-[2-(4-sulfamoyl-phenyl)-ethyl]-acetamide] | > 25 |
| Cn1c(=O)c2ccccc2n(CC(=O)NCCc2ccc(S(N)(=O)=O)cc2)c1=O [Compound 102, 2-(3-Methyl-2,4-dioxo-3,4-dihydro-2H-quinazolin-1-yl)-N-[2-(4-sulfamoyl-phenyl)-ethyl]-acetamide] | > 25 |
| CC(=O)NCCc1ccc(S(=O)(=O)Nc2ccc3ncn(C)c(=O)c3c2)cc1 [Compound 103, N-{2-[4-(3-Methyl-4-oxo-3,4-dihydro-quinazolin-6-ylsulfamoyl)-phenyl]-ethyl}-acetamide] | > 25 |
| CC(=O)NCCc1ccc(S(=O)(=O)Nc2ccc3ncn(Cc4ccccc4)c(=O)c3c2)cc1 [Compound 104, N-{2-[4-(3-Benzyl-4-oxo-3,4-dihydro-quinazolin-6-ylsulfamoyl)-phenyl]-ethyl}-acetamide] | > 25 |
| CCN(CC)S(=O)(=O)c1cc(NC(=O)Cn2cnc3ccccc3c2=O)ccc1C [Compound 105, N-(3-Diethylsulfamoyl-4-methyl-phenyl)-2-(4-oxo-4H-quinazolin-3-yl)-acetamide] | > 25 |
| NS(=O)(=O)c1cccc(NC(=O)Cn2cnc3ccccc3c2=O)c1 [Compound 106, 2-(4-Oxo-4H-quinazolin-3-yl)-N-(3-sulfamoyl-phenyl)-acetamide] | > 25 |
| CN(C)S(=O)(=O)c1cccc(NC(=O)Cn2cnc3ccccc3c2=O)c1 [Compound 107, N-(3-Dimethylsulfamoyl-phenyl)-2-(4-oxo-4H-quinazolin-3-yl)-acetamide] | > 25 |
| NS(=O)(=O)c1ccc(NC(=O)Cn2nc(C(=O)O)c3ccccc3c2=O)cc1 [Compound 108, 4-Oxo-3-[(4-sulfamoyl-phenylcarbamoyl)-methyl]-3,4-dihydro-phthalazine-1-carboxylic acid] | > 25 |
| NS(=O)(=O)c1ccc(NC(=O)CCc2nc3ccccc3c(=O)[nH]2)cc1 [Compound 109, 3-(4-Oxo-3,4-dihydro-quinazolin-2-yl)-N-(4-sulfamoyl-phenyl)-propionamide] | > 25 |
